From patent US11179348B2, “Combination comprising pterostilbene for the treatment of cancer” (FUNDACIÓN UNIVERSIDAD CATÓLICA DE VALENCIA SAN VICENTE …, priority 2015, dated 2021)
Marks after values point to notes of the source that are not given here.

Experiments:
[1] = test system: Caco-2 colorectal carcinoma; test: In vivo growth of Caco-2 colorectal cancer xenografts; parameters: species or system human; conditions: Caco-2, day 28
ASPC-1 cells = test: Effect of Pter on ASPC-1 cell growth or viability in vitro; format: cell-based, human; conditions: 15 μM Pter×60 min every 24 h
Experimental: FIG. 11. In vivo effect of Pter on human pancreatic cancer growth. […] For the doses of 20 and 40 mg Pter/kg only the point at the end of the treatment period is shown.
Human A2058, MeWo and MelJuso melanoma cells, and mouse AtT-20 pituitary corticotroph tumor cells were from the American Type Culture Collection (ATCC). Human HEMa-LP epidermal melanocytes were from Life Technologies (Grand Island, N.Y.). Human MDA-MB-231 (triple negative: ER−, PR−, HER2−) and MCF-7 (ER+, PR+, HER2−) breast adenocarcinoma, A549 lung adenocarcinoma (NSCLC), HepG2 hepatocellular carcinoma, LNCaP (AR+) and PC-3 (AR−) prostate adenocarcinoma, SK-OV-3 epithelial ovarian carcinoma, and HT-29 and Caco-2 colorectal carcinoma cells were from the American Type Culture Collection. Cells were grown in Dulbecco's modified Eagle's medium (DMEM) (Invitrogen, San Diego, Calif.), pH 7.4, supplemented with 10% heat-inactivated FCS (Biochrom KG, Berlin, Germany), 100 units/ml penicillin and 100 μg/ml streptomycin. Cells were plated, at a density of 20,000 cells/cm2, and cultured at 37° C. in a humidified atmosphere with 5% CO2. […] Cell numbers were determined using a Coulter Counter (Coulter Electronic Inc., Miami, Fla.). […] Cellular viability was assessed as previously reported (Mena, S. et al. Clin Cancer Res 13, 2658-2666 (2007)), by measuring trypan blue exclusion and leakage of lactate dehydrogenase activity.

[2] = test system: PC-3 prostate adenocarcinoma; test: In vivo growth of PC-3 prostate cancer xenografts; parameters: species or system human; conditions: PC-3, day 21
AsPC-1 pancreatic cancer = test: In vivo growth of AsPC-1 pancreatic cancer xenografts; parameters: species or system human; conditions: AsPC-1-RFP; 28 days after inoculation; Pter and/or CRC
MeWo melanoma = test: In vivo growth of MeWo melanoma xenografts in nu/nu mice; parameters: species or system human
BxPC-3 pancreatic cancer = test: In vivo growth of BxPC-3 pancreatic cancer xenografts; parameters: species or system human; conditions: BxPC-3-RFP; 35 days after inoculation; Pter and/or CRC
corticosterone = test: Plasma corticosterone levels (ELISA) in tumor-bearing mice; format: in vivo
Source text: Measurement of ACTH, Corticosterone, and NORA Levels.
Plasma levels of ACTH (Calbiotech, Inc., Spring Valley, Calif.), corticosterone (Kamiyama Biomedical Co., Seattle, Wash.), and NORA (IBL, Hamburg, Germany) were quantified by ELISA according to the instructions of the suppliers.

[3] = test system: AsPC-1 cells isolated from tumor-bearing mice; test: Chemosensitization of cultured AsPC-1 cells isolated from xenografts; format: cell-based, human; conditions: 72 h-cultured, PL 1 μM, Chemo 0.125 μM PAC.PBP and 25 μM GTB, Pter = in vivo pretreatment
Experimental: FIGS. 18-25. Effect of piperlongumine and I-BET762, as GSH depleting and chemosensitizing agents, in in vitro growing human melanoma, pancreatic, breast, lung, liver, prostate, ovarian, and colorectal cancer cells. Cancer cells, isolated from Pter-treated tumor-bearing mice, were cultured as indicated under Methods. Chemotherapy (0.25 μM PAC.PBP in A2058 melanoma and MDA-MB-231 breast carcinoma cells; 0.125 μM PAC.PBP and 25 μM GTB in AsPC-1 pancreatic cancer cells; 1 μM VRB and 15 μM cisPt in A459 lung carcinoma cells; 0.15 μM DXR in HepG2 hepatocellular carcinoma cells; 15 nM DCT in PC-3 prostate carcinoma cells; 0.15 μM PAC.PBP and 25 μM CarboPt in SK-OV-3 ovarian carcinoma cells; 3 μM 5-FU, 1 μM FA and 0.6 μM IRI in HT-29 colorectal carcinoma cells) was added to the cultured flasks 24 h after seeding. […]
Human A2058, MeWo and MelJuso melanoma cells, and mouse AtT-20 pituitary corticotroph tumor cells were from the American Type Culture Collection (ATCC). […] Cell numbers were determined using a Coulter Counter (Coulter Electronic Inc., Miami, Fla.). […] Cellular viability was assessed as previously reported (Mena, S. et al. Clin Cancer Res 13, 2658-2666 (2007)), by measuring trypan blue exclusion and leakage of lactate dehydrogenase activity. […]

Q: COc1cc(/C=C/c2ccc(O)cc2)cc(OC)c1 [Pter, trans-3,5-dimethoxy-4′-hydroxystilbene] was tested. Which Tumor vol. [1] did it give?
A: Its Tumor vol. is 795 ± 285 mm^3.

Q: What about the “cell growth or viability in vitro” value (ASPC-1 cells) of the same compound?
A: Its value is “did not affect”.

Q: What about the Tumor vol. [2] of the same compound?
A: Its Tumor vol. is 276 ± 74* mm^3.

Q: What about the Tumor vol. (AsPC-1 pancreatic cancer) of the same compound?
A: The Tumor vol. was 523 ± 168* mm^3.

Q: And the Tumor vol. (MeWo melanoma; MeWo-RFP, 35 days after inoculation, Pter 30 mg/kg i.v. every 48 h and/or CRC infusion 0.3 μg/h)?
A: Its Tumor vol. is 167 ± 53* mm^3.

Q: What about the “inhibition of tumor growth” value (MeWo melanoma; Mewo, day 42, 30 mg Pter/kg i.v. every 48 h, vs controls) of the same compound?
A: The value was roughly 65%.

Q: What about the Tumor vol. (BxPC-3 pancreatic cancer) of the same compound?
A: The Tumor vol. was 226 ± 63* mm^3.

Q: What about the CRC (corticosterone; A549-bearing mice, day 35, 12 h circadian time) of the same compound?
A: Its CRC is 61 ± 17 ng/mL plasma.

Q: And the CRC (corticosterone; A2058-bearing mice, day 35, 12 h circadian time)?
A: Its CRC is 123 ± 29 ng/mL plasma.

Q: What about the CRC (corticosterone; AsPC-1-bearing mice, day 28, 12 h circadian time) of the same compound?
A: Its CRC is 217 ± 33 ng/mL plasma.

Q: What about the CRC (corticosterone; B16-F1-bearing mice, day 15, 12 h circadian time) of the same compound?
A: The CRC was 187 ± 36 ng/mL plasma.

Q: And the CRC (corticosterone; BxPC-3-bearing mice, day 35, 12 h circadian time)?
A: Its CRC is 88 ± 21 ng/mL plasma.

Q: What about the CRC (corticosterone; Caco-2-bearing mice, day 28, 12 h circadian time) of the same compound?
A: Its CRC is 106 ± 23 ng/mL plasma.

Q: And the CRC (corticosterone; HT-29-bearing mice, day 21, 12 h circadian time)?
A: Its CRC is 126 ± 36 ng/mL plasma.

Q: And the CRC (corticosterone; HepG2-bearing mice, day 35, 12 h circadian time)?
A: The CRC was 187 ± 50 ng/mL plasma.

Q: What about the CRC (corticosterone; LNCaP-bearing mice, day 49, 12 h circadian time) of the same compound?
A: Its CRC is 77 ± 15 ng/mL plasma.

Q: What about the CRC (corticosterone; MCF-7-bearing mice, day 28, 12 h circadian time) of the same compound?
A: Its CRC is 75 ± 20 ng/mL plasma.

Q: And the CRC (corticosterone; MDA-MB-231-bearing mice, day 35, 12 h circadian time)?
A: Its CRC is 84 ± 24 ng/mL plasma.

Q: And the CRC (corticosterone; MeWo-bearing mice, day 35, 12 h circadian time)?
A: Its CRC is 87 ± 17 ng/mL plasma.

Q: What about the CRC (corticosterone; MelJuso-bearing mice, day 35, 12 h circadian time) of the same compound?
A: Its CRC is 80 ± 15 ng/mL plasma.

Q: What about the CRC (corticosterone; PC-3-bearing mice, day 21, 12 h circadian time) of the same compound?
A: Its CRC is 145 ± 30 ng/mL plasma.

Q: And the CRC (corticosterone; SK-OV-3-bearing mice, day 49, 12 h circadian time)?
A: Its CRC is 64 ± 18 ng/mL plasma.

Q: And the corticosterone in plasma (corticosterone; melanoma-bearing mice, pterostilbene 30 mg/kg every 48 h (FIG. 2A))?
A: The corticosterone in plasma was “to practically control values”.

Q: And the Viable cells [3]?
A: The Viable cells was 1249 ± 206 ×10^6.
